Measured values from patent publication US11033600B2, “Protease transition state inhibitor prodrugs” (priority 2016, dated 2021).
pEC50, pIC50: −log10 of the molar value. Like-named read-outs stand apart in the source and are kept apart here.

Tests used:
[1] = target: norovirus 3CL protease (NV 3CLpro) (Norovirus, UniProt Q83883); test: FRET protease assay (3CL protease), enzyme inhibition; format: biochemical
Procedure: FRET protease assays. The FRET protease assay (3CL protease) was performed by preparing stock solutions of the substrate (Edans-DFHLQ/GP-Dabcyl, SEQ ID NO:1) and inhibitor in DMSO and diluting into assay buffer which was comprised of 20 mM HEPES buffer, pH 8, containing NaCl (200 mM), 0.4 mM EDTA, glycerol (60%), and 6 mM dithiothreitol (DTT). The protease was mixed with serial dilutions of each compound up to 100 μM or with DMSO in 25 μL of assay buffer and incubated at 37° C. for 30 min, followed by the addition of 25 μL of assay buffer containing substrate. Fluorescence readings were obtained using an excitation wavelength of 360 nm and an emission wavelength of 460 nm on a fluorescence microplate reader (FLx800; Biotec, Winoosk, Vt.) 1 h following the addition of substrate. Relative fluorescence units (RFU) were determined by subtracting background values (substrate-containing well without protease) from the raw fluorescence values. The dose-dependent FRET inhibition curves were fitted with a variable slope by using GraphPad Prism software (GraphPad, La Jolla, Calif.) in order to determine the IC50 values of the inhibitors.

[2] = system: NV in replicon harboring cells (HG23 cells); test: Cell-based assay: virus replication in NV replicon harboring cells (HG23 cells), qRT-PCR; parameters: species or system norovirus (NV)
Procedure: The effects of each inhibitor on virus replication were examined against NV in the NV replicon harboring cells (HG23 cells). Briefly, confluent and semi-confluent HG23 cells were incubated with medium containing DMSO (<0.1%) or each compound (up to 200 uM) for 48 h. After the incubation, total RNA was extracted and viral genome was quantitated with real-time quantitative RT-PCR (qRT-PCR). The EC50 values were determined by GraphPadPrism software.

[3] = IV, SC and PO routes, rats
[4] = Table 1, ester prodrugs, average of at least two determinations, read-out: IC50 (50% inhibitory concentration in the enzyme assay)
[5] = Table 1, ester prodrugs, HG23 cells, 48 h, read-out: EC50 (50% effective concentration in cell culture)

norovirus 3CL protease (NV 3CLpro), sequence (Q83883 1101-1281): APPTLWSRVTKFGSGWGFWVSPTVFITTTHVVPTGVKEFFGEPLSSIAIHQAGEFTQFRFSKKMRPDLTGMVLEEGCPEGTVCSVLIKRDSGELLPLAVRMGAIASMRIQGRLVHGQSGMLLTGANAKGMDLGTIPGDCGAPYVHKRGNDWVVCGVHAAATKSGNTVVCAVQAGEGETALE

With COC(=O)CNC(=O)OC([C@H](C[C@@H]1CCNC1=O)NC(=O)[C@H](CC(C)C)NC(=O)OCc1ccccc1)S(=O)(=O)O (stereo partly drawn) [Compound 18, (5 S,8S)-5-Isobutyl-3,6,11,14-tetraoxo-8-(((S)-2-oxopyrrolidin-3-yl)methyl)-1-phenyl-2,10,15-trioxa-4,7,12-triazahexadecane-9-sulfonate] as the compound, how does the pIC50 ([1]; Table 2, carbamate prodrugs, read-out: IC50) read?
Its pIC50 is 5.51.

And the pEC50 ([2]; Table 2, carbamate prodrugs, HG23 cells, 48 h, read-out: EC50)?
Its pEC50 is 6.40.

What does the source list for O=C(N[C@@H](CC1CCCCC1)C(=O)N[C@@H](C[C@@H]1CCNC1=O)C(O)S(=O)(=O)O)OCc1cccc(Cl)c1 (stereo partly drawn) [Compound 26, reference compound]?
IC50 ([1]; in μM, read-out: IC50): 0.1 µM; pEC50 ([2]; Norovirus, HG23, given in M, read-out: EC50): 7.70

With CC(C)C[C@H](NC(=O)OCc1ccccc1)C(=O)N[C@@H](C[C@@H]1CCNC1=O)C(OC(=O)C(C)C)S(=O)(=O)O (stereo partly drawn) [Compound 8, (5S,8S)-5-Isobutyl-12-methyl-3,6,11-trioxo-8-(((S)-2-oxopyrrolidin-3-yl)methyl)-1-phenyl-2,10-dioxa-4,7-diazatridecane-9-sulfonate] as the compound, how does the pIC50 [1, 4] read?
Its pIC50 is 5.46.

What about the pEC50 [2, 5] of the same compound?
The pEC50 was 6.52.

What does the source list for CCCCCC(=O)OC([C@H](C[C@@H]1CCNC1=O)NC(=O)[C@H](CC1CCCCC1)NC(=O)OCc1cccc(Cl)c1)S(=O)(=O)O (stereo partly drawn) [Compound 11, (5S,8S)-1-(3-Chlorophenyl)-5-(cyclohexylmethyl)-3,6,11-trioxo-8-(((S)-2-oxopyrrolidin-3-yl)methyl)-2,10-dioxa-4,7-diazahexadecane-9-sulfonate]?
pIC50 [1, 4]: 7.00; pEC50 [2, 5]: 7.82; Conversion of prodrug to the aldehyde form (compound 25) in rat plasma [3]: most of compound 11 was converted to the aldehyde form
